Test results taken from PubChem BioAssay (NCI).
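Interpolation was linear, between the two tested concentrations surrounding the appropriate level; five concentrations were tested over 48 hours in 96-well plates. TGI: total growth inhibition.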

Tests used:
Assay in all cases: NCI tumour cell line growth inhibition, 48 h
P388/ADR leukemia = test system: P388/ADR leukemia
A498 renal = test system: A498 renal
SW-620 colon = test system: SW-620 colon
HCT-116 colon = test system: HCT-116 colon
DMS 273 small cell lung = test system: DMS 273 small cell lung
EKVX NSCLC = test system: EKVX NSCLC
HOP-18 NSCLC = test system: HOP-18 NSCLC
SNB-75 CNS = test system: SNB-75 CNS
COLO 205 colon = test system: COLO 205 colon
OVCAR-4 ovarian = test system: OVCAR-4 ovarian
M19-MEL melanoma = test system: M19-MEL melanoma
SNB-78 CNS = test system: SNB-78 CNS
OVCAR-3 ovarian = test system: OVCAR-3 ovarian
IGROV1 ovarian = test system: IGROV1 ovarian
OVCAR-5 ovarian = test system: OVCAR-5 ovarian
OVCAR-8 ovarian = test system: OVCAR-8 ovarian
HOP-92 NSCLC = test system: HOP-92 NSCLC
HCC-2998 colon = test system: HCC-2998 colon
HCT-15 colon = test system: HCT-15 colon
HT29 colon = test system: HT29 colon
DMS 114 small cell lung = test system: DMS 114 small cell lung
CAKI-1 renal = test system: CAKI-1 renal
UACC-257 melanoma = test system: UACC-257 melanoma
SNB-19 CNS = test system: SNB-19 CNS
SK-MEL-28 melanoma = test system: SK-MEL-28 melanoma
SF-268 CNS = test system: SF-268 CNS
NCI/ADR-RES ovarian = test system: NCI/ADR-RES ovarian
MALME-3M melanoma = test system: MALME-3M melanoma
SK-MEL-2 melanoma = test system: SK-MEL-2 melanoma
NCI-H23 lung = test system: NCI-H23 lung
SF-539 CNS = test system: SF-539 CNS
NCI-H226 lung = test system: NCI-H226 lung
SF-295 CNS = test system: SF-295 CNS
MCF7 breast = test system: MCF7 breast
HL-60(TB) leukemia = test system: HL-60(TB) leukemia
RXF 393 renal = test system: RXF 393 renal
CCRF-CEM leukemia = test system: CCRF-CEM leukemia
KM20L2 colon = test system: KM20L2 colon
DLD-1 colon = test system: DLD-1 colon
SK-MEL-5 melanoma = test system: SK-MEL-5 melanoma
LOX IMVI melanoma = test system: LOX IMVI melanoma
XF 498 CNS = test system: XF 498 CNS
MOLT-4 leukemia = test system: MOLT-4 leukemia
UACC-62 melanoma = test system: UACC-62 melanoma
SN12C renal = test system: SN12C renal
UO-31 renal = test system: UO-31 renal
A549 NSCLC = test system: A549 NSCLC
U251 CNS = test system: U251 CNS
NCI-H460 lung = test system: NCI-H460 lung

SMILES: O=C1c2cccc3cc4ccccc4c(c23)C(=O)N1CCNCCNCCNCCN1C(=O)c2cccc3cc4ccccc4c(c23)C1=O
- TGI (P388/ADR leukemia): 0.47 µM
- TGI (A498 renal): 0.566 µM
- TGI (SW-620 colon): 0.308 µM
- TGI (HCT-116 colon): 1.11 µM
- TGI (DMS 273 small cell lung): 0.159 µM
- TGI (EKVX NSCLC): 0.666 µM
- TGI (HOP-18 NSCLC): 0.398 µM
- TGI (SNB-75 CNS): 0.106 µM
- TGI (COLO 205 colon): 0.184 µM
- TGI (OVCAR-4 ovarian): 0.314 µM
- TGI (M19-MEL melanoma): 0.161 µM
- TGI (SNB-78 CNS): 0.385 µM
- TGI (OVCAR-3 ovarian): 0.546 µM
- TGI (IGROV1 ovarian): 1.22 µM
- TGI (OVCAR-5 ovarian): 0.672 µM
- TGI (OVCAR-8 ovarian): 0.735 µM
- TGI (HOP-92 NSCLC): 0.254 µM
- TGI (HCC-2998 colon): 0.0829 µM
- TGI (HCT-15 colon): 0.474 µM
- TGI (HT29 colon): 0.552 µM
- TGI (DMS 114 small cell lung): 0.177 µM
- TGI (CAKI-1 renal): 0.344 µM
- TGI (UACC-257 melanoma): 0.767 µM
- TGI (SNB-19 CNS): 0.927 µM
- TGI (SK-MEL-28 melanoma): 0.324 µM
- TGI (SF-268 CNS): 0.197 µM
- TGI (NCI/ADR-RES ovarian): 1.53 µM
- TGI (MALME-3M melanoma): 0.78 µM
- TGI (SK-MEL-2 melanoma): 0.252 µM
- TGI (NCI-H23 lung): 0.159 µM
- TGI (SF-539 CNS): 0.288 µM
- TGI (NCI-H226 lung): > 100 µM
- TGI (SF-295 CNS): 0.281 µM
- TGI (MCF7 breast): 1.87 µM
- TGI (HL-60(TB) leukemia): 0.212 µM
- TGI (RXF 393 renal): 0.0435 µM
- TGI (CCRF-CEM leukemia): 0.637 µM
- TGI (KM20L2 colon): 0.597 µM
- TGI (DLD-1 colon): 0.344 µM
- TGI (SK-MEL-5 melanoma): 0.578 µM
- TGI (LOX IMVI melanoma): 0.155 µM
- TGI (XF 498 CNS): 0.178 µM
- TGI (MOLT-4 leukemia): 0.212 µM
- TGI (UACC-62 melanoma): 0.156 µM
- TGI (SN12C renal): 1.41 µM
- TGI (UO-31 renal): 0.36 µM
- TGI (A549 NSCLC): 1 µM
- TGI (U251 CNS): 0.539 µM
- TGI (NCI-H460 lung): 0.0233 µM
